According to ChEMBL document CHEMBL4699481, “Structure-based amelioration of PXR transactivation in a novel series of macrocyclic allosteric inhibitors of HIV-1 integrase” (Bioorg Med Chem Lett, 2020):

What was measured:
[1] = Allosteric inhibition of HIV-1 integrase assessed as antiviral activity against HIV-1 NL4-3 infected in human MT-2 cells by measuring inhibition of viral growth by luciferase reporter gene assay; assay type: cell-based; conditions: Human immunodeficiency virus 1, NL4-3, MT2
[2] = target: T1, Nuclear receptor subfamily 1 group I member 2 (Homo sapiens, UniProt O75469); test: Transactivation of human PXR transfected in human HepG2 cells co-transfected with CYP3A4-Luc plasmid incubated for overnight by luciferase reporter gene assay; assay type: ADME, cell-based
T1 sequence (O75469 whole entry): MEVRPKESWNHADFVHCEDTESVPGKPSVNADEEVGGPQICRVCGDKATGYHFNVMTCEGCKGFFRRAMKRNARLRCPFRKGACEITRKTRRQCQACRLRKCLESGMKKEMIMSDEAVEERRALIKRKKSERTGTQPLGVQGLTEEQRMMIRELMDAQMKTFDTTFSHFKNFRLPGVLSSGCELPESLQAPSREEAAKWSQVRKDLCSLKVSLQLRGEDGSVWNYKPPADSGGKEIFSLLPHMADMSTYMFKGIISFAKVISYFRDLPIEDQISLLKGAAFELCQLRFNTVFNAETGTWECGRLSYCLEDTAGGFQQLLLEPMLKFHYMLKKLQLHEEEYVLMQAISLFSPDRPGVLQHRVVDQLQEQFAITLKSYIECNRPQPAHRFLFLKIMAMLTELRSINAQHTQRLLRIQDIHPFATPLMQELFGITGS

PXR (NR1I2) = target: T2, PXR (NR1I2) (Homo sapiens, UniProt O75469); test: Transactivation of human PXR transfected in human HepG2 cells co-transfected with CYP3A4-Luc plasmid incubated for overnight by luciferase reporter gene assay relative to 10 uM rifampicin; assay type: ADME, cell-based
T2 sequence (O75469 whole entry): T1 sequence (O75469 whole entry)

`Cc1nc2cc(-c3cccc(-c4ccccc4)c3)nn2c(N2CCC(C)(C)CC2)c1[C@H](OC(C)(C)C)C(=O)O` showed an EC50 [1] of 130 nM.

For `Cc1c([C@H](OC(C)(C)C)C(=O)O)c2n3cc(nc3c1CN(C)C)-c1cccc(c1)-c1cc(F)ccc1O[C@@H](C)CCCCOC1(C)CCN2CC1`, the EC50 [2] was over 50000 nM and the EC50 [1] was 4.4 nM.

`Cc1c([C@H](OC(C)(C)C)C(=O)O)c2n3cc(nc3c1C(C)(C)O)-c1cccc(c1)-c1cc(F)ccc1O[C@@H](C)CCCCOC1(C)CCN2CC1` gave an EC50 [2] of 1010 nM, an EC50 [1] of 5.7 nM and an Emax (PXR (NR1I2)) of 71%.

With `Cc1cc2nc(-c3cccc(-c4cccc(F)c4)c3)cn2c(N2CCC(C)(C)CC2)c1[C@H](OC(C)(C)C)C(=O)O` the EC50 [1] was 20.9 nM.

Work on `Cc1c([C@H](OC(C)(C)C)C(=O)O)c2n3cc(nc3c1CNCC(C)(C)O)-c1cccc(c1)-c1cc(F)ccc1O[C@@H](C)CCCCOC1(C)CCN2CC1` yielded an EC50 [2] of over 50000 nM and an EC50 [1] of 9.5 nM.

With `Cc1c([C@H](OC(C)(C)C)C(=O)O)c2n3cc(nc3c1CNC(C)C)-c1cccc(c1)-c1cc(F)ccc1O[C@@H](C)CCCCOC1(C)CCN2CC1` the EC50 [2] was over 50000 nM and the EC50 [1] was 7.3 nM.
